Several values for one entry are separate records, joined by “and”; a condition that tells them apart may be missing. Identical values can stand only once. Entries after “also recorded” stand apart in the source; their conditions may differ.
What was measured:
[1] = test system: F344 kidney allograft in LEW recipient rats; assay: Kidney allograft survival, prevention of chronic rejection (Example 1); type: in vivo, rat; details: 0-9 day; for Survival day: individual rats, n=5; for Survival rate (more than 90 days): untreated allograft 40%
Description: (§1) Inbred male Lewis rats (LEW) (RT1^I), weighing 250-300 g, were used as kidney transplantation recipients. Inbred male LEW and Fisher (F344) (RT1^IvI), weighing 250-350 g, were used as isograft and allograft donor rats, respectively. Kidney transplantation was performed using the modified technique of Fisher and Lee. [Fisher et al., Surgery, 58:904-914, 1965] Survival of kidney transplant was measured as time of recipient rat survival. Blood and 24 hr urine samples were collected once a week for plasma creatinine, proteinuria, and the measurement of antibody titer against donor glomeruli basement membrane protein (GBM). Kidney grafts were harvested on the 90th day posttranspalantation and subjected to histology and reverse transcriptase-polymerase chain reaction (RT-PCR) analysis. The compound (I), at doses of 10 mg/kg and 20 mg/kg were administered orally to recipient rats daily from day 0 to day 9 after transplantation. Control isograft and allograft recipients received no drug after transplantation.

[2] = test system: F344 kidney allograft in LEW recipient rats; assay: Kidney graft histology, modified Banff criteria (Example 1); type: in vivo, rat; details: for Banff grade: Fibro-intimal Hyperplasia / Banff grade: Glomerulitis / Banff grade: Glomerulosclerosis / Banff grade: Inflammation / Banff grade: Mesangiolysis / Banff grade: Transplant Glomerulopathy / Banff grade: Tubular Atrophy / Banff grade: Tubulitis / Banff grade: Vasculitis: graft day 90, one line per rat; for approximate cumulative reduction in Banff score: fibro-intimal hyperplasia / approximate cumulative reduction in Banff score: glomerulitis / approximate cumulative reduction in Banff score: glomerulosclerosis / approximate cumulative reduction in Banff score: interstitial inflammation / approximate cumulative reduction in Banff score: mesangiolysis / approximate cumulative reduction in Banff score: transplant glomerulopathy / approximate cumulative reduction in Banff score: tubular atrophy / approximate cumulative reduction in Banff score: tubulitis / approximate cumulative reduction in Banff score: vasculitis: vs untreated allograft control
Description: as §1
Kidney graft tissues were harvested from recipients on day 90th after transplantation for histological analysis. Graft samples were fixed in 10% NBF and subsequently processed then immediately embedded in ParaPlast™ paraffin embedding media. Samples were sectioned at 3 μm, pre-warmed, deparaffinized, rehydrated, and subsequently stained in one of four processes: Hematoxylin and Eosin, Per-Iodic Acid Schiff, Verhoeff's Combined Elastic Trichrome, and Per-Iodic Acid Silver Methenamine. Histological sections were blindly evaluated by two histologists and scored semiquantitatively based on modified Banff' criteria for transplant pathology. [Solez et al., Kidney Int., 44:411-422, 1993]

[3] = test system: antibody against F344 rat glomeruli basement membrane protein; assay: ELISA of plasma antibody against donor GBM (Example 1); type: in vivo; details: near days 20, 40, 90
Description: as §1
Specific antibody against F344 rat glomeruli basement membrane protein in plasma from LEW recipients with F344 kidneys were also measured in the isograft, untreated allograft and allograft treated with the compound (I) at doses of 10 mg/kg and 20 mg/kg near days 20, 40, and 90 after transplantation by using ELISA assay.

[4] = Compound (I) 10 mg/kg PO, 10 mg/kg

Structure (SMILES): C#CCC/C(O)=C(\C#N)C(=O)Nc1ccc(C(F)(F)F)cc1 [Compound (I), (2Z)-2-cyano-3-hydroxy-N-[4-(trifluoromethyl)phenyl]-2-hepten-6-ynamide]
- Survival day [1, 4]: 28 days and > 90 days
- Survival rate (more than 90 days) [1, 4]: 80%
- Survival day ([1]; Compound (I) 20 mg/kg PO): >90(5) day
- Survival rate (more than 90 days) ([1]; Compound (I) 20 mg/kg PO, 20 mg/kg): 100%
- Banff grade: Fibro-intimal Hyperplasia ([2]; 10 mg from day 0-9): ++ ((++):Grade 2, Moderate); also recorded: − ((−):Grade 0, Normal)
- Banff grade: Glomerulitis ([2]; 10 mg from day 0-9): + ((+):Grade 1, Mild); also recorded: − ((−):Grade 0, Normal)
- Banff grade: Glomerulosclerosis ([2]; 10 mg from day 0-9): − ((−):Grade 0, Normal); also recorded: + ((+):Grade 1, Mild)
- Banff grade: Inflammation ([2]; 10 mg from day 0-9): + ((+):Grade 1, Mild); also recorded: ++ ((++):Grade 2, Moderate)
- Banff grade: Mesangiolysis ([2]; 10 mg from day 0-9): − ((−):Grade 0, Normal); also recorded: + ((+):Grade 1, Mild)
- Banff grade: Transplant Glomerulopathy ([2]; 10 mg from day 0-9): − ((−):Grade 0, Normal); also recorded: + ((+):Grade 1, Mild)
- Banff grade: Tubular Atrophy ([2]; 10 mg from day 0-9): + ((+):Grade 1, Mild)
- Banff grade: Tubulitis ([2]; 10 mg from day 0-9): − ((−):Grade 0, Normal)
- Banff grade: Vasculitis ([2]; 10 mg from day 0-9): + ((+):Grade 1, Mild); also recorded: +++ ((+++):Grade 3, Severe)
- approximate cumulative reduction in Banff score: fibro-intimal hyperplasia ([2]; 10 mg/kg PO day 0-9): ~63%
- approximate cumulative reduction in Banff score: glomerulitis ([2]; 10 mg/kg PO day 0-9): ~75%
- approximate cumulative reduction in Banff score: glomerulosclerosis ([2]; 10 mg/kg PO day 0-9): ~83%
- approximate cumulative reduction in Banff score: interstitial inflammation ([2]; 10 mg/kg PO day 0-9): ~50%
- approximate cumulative reduction in Banff score: mesangiolysis ([2]; 10 mg/kg PO day 0-9): ~83%
- approximate cumulative reduction in Banff score: transplant glomerulopathy ([2]; 10 mg/kg PO day 0-9): ~79%
- approximate cumulative reduction in Banff score: tubular atrophy ([2]; 10 mg/kg PO day 0-9): ~40%
- approximate cumulative reduction in Banff score: tubulitis ([2]; 10 mg/kg PO day 0-9): ~100%
- approximate cumulative reduction in Banff score: vasculitis ([2]; 10 mg/kg PO day 0-9): ~33%
- Banff grade: Fibro-intimal Hyperplasia ([2]; 20 mg from day 0-9): ++ ((++):Grade 2, Moderate); also recorded: + ((+):Grade 1, Mild)
- Banff grade: Glomerulitis ([2]; 20 mg from day 0-9): ++ ((++):Grade 2, Moderate); also recorded: + ((+):Grade 1, Mild); also recorded: − ((−):Grade 0, Normal)
- Banff grade: Glomerulosclerosis ([2]; 20 mg from day 0-9): − ((−):Grade 0, Normal)
- Banff grade: Inflammation ([2]; 20 mg from day 0-9): + ((+):Grade 1, Mild)
- Banff grade: Mesangiolysis ([2]; 20 mg from day 0-9): − ((−):Grade 0, Normal)
- Banff grade: Transplant Glomerulopathy ([2]; 20 mg from day 0-9): − ((−):Grade 0, Normal)
- Banff grade: Tubular Atrophy ([2]; 20 mg from day 0-9): + ((+):Grade 1, Mild); also recorded: − ((−):Grade 0, Normal)
- Banff grade: Tubulitis ([2]; 20 mg from day 0-9): − ((−):Grade 0, Normal)
- Banff grade: Vasculitis ([2]; 20 mg from day 0-9): +++ ((+++):Grade 3, Severe); also recorded: − ((−):Grade 0, Normal)
- approximate cumulative reduction in Banff score: fibro-intimal hyperplasia ([2]; 20 mg/kg PO day 0-9): ~44%
- approximate cumulative reduction in Banff score: glomerulitis ([2]; 20 mg/kg PO day 0-9): ~38%
- approximate cumulative reduction in Banff score: glomerulosclerosis ([2]; 20 mg/kg PO day 0-9): ~100%
- approximate cumulative reduction in Banff score: interstitial inflammation ([2]; 20 mg/kg PO day 0-9): ~67%
- approximate cumulative reduction in Banff score: mesangiolysis ([2]; 20 mg/kg PO day 0-9): ~100%
- approximate cumulative reduction in Banff score: transplant glomerulopathy ([2]; 20 mg/kg PO day 0-9): ~100%
- approximate cumulative reduction in Banff score: tubular atrophy ([2]; 20 mg/kg PO day 0-9): ~85%
- approximate cumulative reduction in Banff score: tubulitis ([2]; 20 mg/kg PO day 0-9): ~100%
- approximate cumulative reduction in Banff score: vasculitis ([2]; 20 mg/kg PO day 0-9): ~50%
- production of antibody against donor GBM in plasma ([3]; 10 mg/kg PO day 0-9): a trend of reduced production of antibody against donor GBM
- production of antibody against donor GBM in plasma ([3]; 20 mg/kg PO day 0-9): a trend of reduced production of antibody against donor GBM
